Values quoted from earlier work as cited in patent US11129554B2, “Sweat monitoring and control of drug delivery” (University Of Cincinnati, priority 2014, dated 2021).

Test system: not given
Conditions: dye clearance tests

Molecule | resolution of excretion in sweat
carboxyethyl-hydroxychroman [CEHC] | 2 to 3 min

Test system: alpha-blocking
Conditions: not given

Molecule | alpha-blocking activity
COc1ccccc1OCCNCC(O)COc1cccc2[nH]c3ccccc3c12 (single isomer, unassigned) [Carvedilol R(+) isomer, Carvedilol] | approximately equally alpha-blocking potency
COc1ccccc1OCCNCC(O)COc1cccc2[nH]c3ccccc3c12 (stereo not drawn) [Carvedilol S(−) isomer, Carvedilol] | approximately equally alpha-blocking potency
CC(CCc1ccccc1)NCC(O)c1ccc(O)c(C(N)=O)c1 [Labetalol (S, R) isomer, Labetalol] | potent alpha-blocker
S-Timolol | more a potent alpha-blocker than R-timolol

Test system: not given
Conditions: in vivo

Molecule | half-life
COc1ccc2c(c1)[C@]13CCCC[C@@H]1[C@H](C2)N(C)CC3 [DM, Dextromethorphan] | 2 to 4 h
CN1C(=O)CC[C@H]1c1cccnc1 [cotinine] | about 20 hours

Test system: beta-adrenoceptors
Conditions: not given

Molecule | beta-blocking activity
CC(C)NC[C@H](O)COc1cccc2ccccc12 [1-Propranolol] | has beta-adrenoceptors blocking action
COc1ccccc1OCCNCC(O)COc1cccc2[nH]c3ccccc3c12 (stereo not drawn) [Carvedilol S(−) isomer, Carvedilol] | nonselective beta-adrenoceptor blocker
CC(CCc1ccccc1)NCC(O)c1ccc(O)c(C(N)=O)c1 [Labetalol (R, R) isomer, Labetalol] | potent beta-blocker
CC(CCc1ccccc1)NCC(O)c1ccc(O)c(C(N)=O)c1 [Labetalol (R, S) isomer, Labetalol] | relatively inactive
CC(CCc1ccccc1)NCC(O)c1ccc(O)c(C(N)=O)c1 [Labetalol (S, S) isomer, Labetalol] | relatively inactive
OC(CNCC(O)C1CCc2cc(F)ccc2O1)C1CCc2cc(F)ccc2O1 (stereo not shown) [Nebivolol] | highly selectively beta-1-blocking effects
CC(C)NCC(O)c1ccc(NS(C)(=O)=O)cc1 [Sotalol D-isomer, Sotalol] | no beta-blocking activity
CC(C)NCC(O)c1ccc(NS(C)(=O)=O)cc1 [Sotalol L-isomer, Sotalol] | has beta-blocking activity
CC(C)NC[C@@H](O)COc1cccc2ccccc12 [d-propranolol] | inactive
